# Measurements from publication PMC5190008, “BO-1055, a novel DNA cross-linking agent with remarkable low myelotoxicity shows potent activity in sarcoma models” (Oncotarget, 2016).
# How the values were obtained:
# CCRF-CEM/Taxol cells = system: CCRF-CEM/Taxol cells; design: method as in PMID 21106377; details: CCRF-CEM/Taxol ref 6; cited from earlier work
# A673 spheroids = assay: Spheroid assay in 3D culture (methylcellulose); type: cell-based, human; details: A673 spheroids in methylcellulose, scored 14 days after plating
# Experimental: A673 cells were seeded on flat bottom non attachment 24 well plates (1000 cells/well) in triplicate using 1.2 % methylcellulose (Dow Chemical, Waterloo, NY) mixed with 20% FCS and specified concentrations of BO-1055 or 4HC as shown in Figure 1D. Samples were incubated at 37°C / 5 % CO2 and colonies were scored 14 days after plating.
# [1] = system: patient derived Ewing sarcoma xenografts; assay: Cyclophosphamide resistant patient-derived Ewing sarcoma xenografts; type: in vivo, NSG mice; details: cyclophosphamide MTD 70mg/kg i.p. q2d for 3 doses
# Experimental: Patient derived xenografts were established from Ewing sarcoma patients who progressed through first line chemotherapy that included cyclophosphamide, doxorubicin, vincristine, ifosfamide and etoposide (PS3). When these Ewing sarcoma xenografts (n = 10) reached 100mm^3, they were randomized to control and treatment groups.
# All mouse experiments were performed at the animal core facility at MSKCC under an approved protocol following the IACUC guidelines. Five to seven-week-old NOD/SCID IL2R gamma null (NSG) mice (bred at the Mouse Genetics Core Facility, MSKCC) were used for in vivo experiments. All mouse experiments were done following the IACUC guidelines at the animal facility at MSKCC. Tumors were induced using 10^6 A673 cells or A204 cells in 0.2ml 1:1 cellular medium, Matrigel matrix (BD Bioscience, Bedford, MA) and injected subcutaneously (s.q) into the right flank. The tumors were measured every 3 d with a caliper, and the diameters were recorded. Tumor volume was calculated by the formula a^2 b/2 where ‘a’ is the smallest and ‘b’ is the largest diameter. When the tumors reached 100mm^3, we randomized mice into control and drug treatment groups. Treatment groups received BO-1055 by tail vein injection at 10mg/kg, 20mg/kg and 30mg/kg q2d x 5 doses for mice bearing A673 xenografts. BO-1055 was given at 30mg/kg q2d x 5 doses for mice bearing A204 xenografts. […]
smiles,measurement,setting,value
"CC(=O)O[C@H]1C(=O)[C@@]2(C)[C@H]([C@H](OC(=O)c3ccccc3)[C@]3(O)C[C@H](OC(=O)[C@H](O)[C@@H](NC(=O)c4ccccc4)c4ccccc4)C(C)=C1C3(C)C)[C@]1(OC(C)=O)CO[C@@H]1C[C@@H]2O [taxol, reference compound]",resistance of CCRF-CEM/Taxol cells,CCRF-CEM/Taxol cells,330 fold
"O=P1(N(CCCl)CCCl)NC(OO)CCO1 (stereo not drawn) [4-HC, 4-hydroperoxy cyclophosphamide, reference compound]",concentration giving complete inhibition of spheroids,A673 spheroids,5 µM
"O=P1(N(CCCl)CCCl)NCCCO1 (stereo not drawn) [cyclophosphamide, reference compound]",tumor growth,[1],not inhibited
